Test results published in US9149488B2, “Pharmaceutical composition and use of diethyl (2-cyanoethyl)phosphonate” (Olatec Industries LLC, priority 2013, dated 2015).
Where two headings read alike, the source gives them in different places.

Tests used:
[1] = system: tail flick response to heat stimulus (49° C. water bath); assay: Tail flick test in mice (oral administration); type: in vivo
Protocol: Tail flick test is a test of the pain response in animals. Tail flick test is used in basic pain research and to measure the effectiveness of analgesics, by observing the tail flick reaction to heat in an animal. This test assesses the nociceptive response to a local pain stimulus, and the ability of a drug to inhibit this response.
Vehicle control (water) and test compound diethyl(2-cyanoethyl)phosphonate in water were administered by oral gavage to mice with a volume of 10 mL/kg, twice, at 60 and 15 minutes before the first tail flick measurement. The test compound was administered at a dosage of 10, 30, or 100 mg/kg in water. The positive control compound morphine was administered by subcutaneous injection at 8 mg/kg with a volume of 8 mL/kg, at 15 minutes before the first tail flick measurement. Each group had 10 mice.
The response of mice to heat stimulus was evaluated by measuring the time of tail-flick or tail-flick latency from 49° C. water bath. Briefly, the animal was placed in a restrainer with its tail hanging down. Approximately 2 inches of the tail was immersed in a beaker of water at 38±1° C. for about 30 seconds, and this was done twice to acclimate the animal to the procedure.
Subsequently, approximately 2 inches of the tail was immersed in a beaker of water at 49±1° C., at which point a timer was started.
Tail flick measurements were made 60, 80, 100, and 120 minutes post administration of the first dosage of test compound. An ANOVA was done, and if p<0.05, a Dunnett's t test was employed to calculate significant difference between vehicle control and test compound treated groups. A pairwise Student's t test was used to calculate differences between the morphine group and the control group. […] Analysis with p-values <0.05 is considered significant.

[2] = system: formalin-induced paw licking; assay: Formalin test in mice (oral administration); type: in vivo, Male CD-1 mice
Protocol: Formalin test is a model of continuous pain resulting from formalin-induced tissue injury. Nociceptive and inflammatory pain was induced by injection of a dilute formalin solution into the paw, resulting in nocifensive behavior including paw flinching. The formalin model encompasses inflammatory, neurogenic, and central mechanism of pain. The early phase of pain (from 0 to about 10 minutes) is due to nociceptive mechanism and the late phase of pain (from 10-40 minutes) is due to a combination of inflammatory pain and nociceptive mechanism. Pain behavior is assessed using manual paw licking measurements. The endpoints of the study are the number of paw licking events. (Hunskaar et al., Pain, 30:103-114, 1987; Li et al., Molecular Pain, 6:11, 2010)
Male CD-1 mice, about 34 g, were used in the study. Mice had free access to food and water, were maintained on a 12 hour: 12 hour light/dark schedule for the entire duration of the study, and housed in soft bedding five per cage.
Immediately prior to testing (at time 0), mice were restrained in a cloth and injected with 20 μL of a 5% formalin solution, subcutaneously into the dorsal surface of the left hind paw. Vehicle control (n=10, water) and test compound diethyl(2-cyanoethyl)phosphonate (n=9, in water) and were administered by oral gavage with a volume of 10 mL/kg to mice. The amounts of test compound were 10, 30, or 100 mg/kg per dose.
Positive control morphine was administered by subcutaneous injection at 4 mg/kg with a volume of 4 mL/kg to mice (n=10). […] The purpose of morphine is not to serve as a comparison with the test compound.
Morphine was subcutaneously administered once 15 minutes before formalin injection. The test compounds and vehicle control were orally administered twice (BID), at 60 and 15 minutes before formalin injection at time zero.
Following formalin injection, animals were placed in individual cages, and manually observed for 60 minutes. The licking events were recorded in five minute intervals continuously for a total of 60 minutes.
The number of licking events per minute was calculated between 0-10 minutes and 10-40 minutes for vehicle, positive control, and test compound. An ANOVA was done, and if p<0.05, a Dunnett's t test was employed to calculate significant difference between vehicle control and test compound treated groups. A pairwise Student's t test was used to calculate differences between the morphine group and the control group. Significance is set at P<0.05 level.

[3] = system: formalin-induced paw licking
Protocol: The test compound diethyl(2-cyanoethyl)phosphonate (375 mM in vehicle, n=16) and vehicle control (acetone:ethanol 1:1, n=16) were administered topically by submerging the mouse left hind paw in the respective solution for about 30 seconds. The paw was then withdrawn and wiped with tissue to avoid excess dermal drying.
Positive control morphine was administered by subcutaneous injection at 4 mg/kg with a volume of 4 mL/kg to mice (n=16).
Morphine was subcutaneously administered once 15 minutes before formalin injection. The test compounds and vehicle control were topically administered twice (BID), at 90 and 15 minutes before formalin injection.
Following formalin injection, animals were placed in individual cages, and manually observed for 60 minutes. The licking events were recorded in five minute intervals continuously for a total of 40 minutes.
The number of licking events per minute was calculated between 0-10 minutes and 10-40 minutes for vehicle, positive control, and test compound. A two-sample t-test was done to compare the vehicle group with the test compound group. Significance is set at P<0.05 level. The same statistics were done comparing the vehicle group with the positive control group.

[4] = system: arachidonic acid-induced ear swelling; assay: Topical arachidonic acid-induced ear swelling model in mice (topical administration); type: in vivo, Male ICR mice
Protocol: Diethyl(2-cyanoethyl)phosphonate, was obtained from Sigma-Aldrich and used in this experiment.
The test compound, indomethacin (positive control), and vehicle (acetone:ethanol/1:1) were evaluated for anti-inflammatory activity in a topical arachidonic acid-induced ear swelling model in mice.
Male ICR mice weighing 22±2 g were used and randomly divided; the test compound and vehicle control had 10 mice, and indomethacin had 5 mice. Arachidonic Acid (0.5 mg in 20 μl of acetone:ethanol/1:1) was applied topically to the anterior and posterior surfaces of the right ear of each mice. Test substances (in vehicle) and vehicle, as listed in Table 1 were similarly applied 30 min before and 15 min after arachidonic acid application. The thickness of the right ear and the left ear was measured and the difference calculated as an indication of the inflammation in the right ear. Ear swelling was measured by a Dyer model micrometer gauge at 60 and 90 minutes after arachidonic acid application as an index of inflammation. Percent inhibition was calculated according to the formula: Ic−It/Ic×100, where Ic and It refers to increase of ear thickness (mm) in control and treated mice, respectively. An ANOVA was done, and if p<0.05, a Dunnett's t test was employed to calculate significant difference between vehicle control and test compound treated groups. […]

[5] = system: arachidonic acid-induced ear swelling; assay: Arachidonic acid-induced ear swelling in mice (intraperitoneal administration); type: in vivo; conditions: measured at 90 minutes
Protocol: The protocols of this experiment were similar to Example 3, except the following differences. Test substance diethyl(2-cyanoethyl)phosphonate was dissolved in PBS to generate 1, 3 and 10 mg/mL testing solutions. Vehicle (PBS) at 10 mL/kg and diethyl(2-cyanoethyl)phosphonate at 10 mL/kg (10, 30, and 100 mg/kg) were administered intraperitoneally at 1 hour, and again 15 minutes before arachidonic acid (0.5 mg/ear) challenge. The positive control dexamethasone was administered orally 3 hours before arachidonic acid.
An ANOVA was done, and if p<0.05, a Dunnett's t test was employed to calculate significant difference between vehicle control and treated groups. Significance is set at P<0.05 level.
An ANOVA was done, and if p<0.05, a Dunnett's t test was employed to calculate significant difference between vehicle control and test compound treated groups. A pairwise Student's t test was used to calculate differences between the dexamethasone group and the control group. Significance is set at P<0.05 level.

[6] = system: IL-6, TNFα, IFNγ, MIP-2 and RANTES; assay: Pro-inflammatory cytokine release in rat challenged in vivo with lipopolysaccharide; conditions: given orally to rat, then lipopolysaccharide challenge in vivo

CN1CC[C@]23c4c5ccc(O)c4O[C@H]2[C@@H](O)C=C[C@H]3[C@H]1C5 [Morphine, morphine, reference compound]
Tail flick latency compared with vehicle-treated mice ([1]; mouse, in vivo): statistically significant tail flick latency at all measured time points | Duration of efficacy ([2]; mouse, in vivo): did not last after 40 minutes | Licks per min (Between 0-10 min) ([2]; mouse, in vivo): 2.1 Licks per min | Licks per min (Between 10-40 min) ([2]; mouse, in vivo): 0.47 Licks per min | Reduction in the number of events vs vehicle ([2]; mouse, in vivo): statistically significant (p<0.05) reductions | Licks per min (Between 0-10 min) ([3]; mouse, in vivo): 2.5 Licks per min | Licks per min (Between 10-40 min) ([3]; mouse, in vivo): 0.53 Licks per min | Reduction in the number of events vs vehicle ([3]; mouse, in vivo): statistically significant (p<0.05) reductions

CCOP(=O)(CCC#N)OCC [Diethyl (2-cyanoethyl) phosphonate, Diethyl(2-cyanoethyl)phosphonate]
Anti-inflammatory activity in mouse ear swelling model ([4]; applied topically, inflammation induced by arachidonic acid): anti-inflammatory | % Inhibition of ear swelling ([4]; topical, 375 mM in acetone:ethanol (1:1), 20 μL (1.4 mg/ear) applied twice, 90 minutes after arachidonic acid): 55% | % Inhibition of ear swelling ([5]; 10 mg/kg intraperitoneally at 1 hour and 15 minutes before arachidonic acid): −8% | % Inhibition of ear swelling ([5]; 30 mg/kg intraperitoneally at 1 hour and 15 minutes before arachidonic acid): 0% | % Inhibition of ear swelling ([5]; 100 mg/kg intraperitoneally at 1 hour and 15 minutes before arachidonic acid): 34% | % Inhibition of ear swelling ([5]; 100 mg/kg intraperitoneally at 1 hour and 15 minutes before arachidonic acid, listed as tested compound): 37% | Tail flick latency compared with vehicle-treated mice ([1]; 30 mg/kg oral, given twice, measured at 60, 80, 100, 120 minutes, FIG. 1): statistically significant tail flick latency at 60 and 80 minutes | Tail flick latency compared with vehicle-treated mice ([1]; 100 mg/kg oral, given twice, measured at 60, 80, 100, 120 minutes, FIG. 1): statistically significant tail flick latency at 60 and 100 minutes | Licks per min (Between 0-10 min) ([2]; 100 mg/kg oral BID, early phase): 3.1 Licks per min | Licks per min (Between 10-40 min) ([2]; 100 mg/kg oral BID, late phase): 0.59 Licks per min | Duration of efficacy ([2]; 100 mg/kg oral BID, after 40 minutes): did not last after 40 minutes | Difference in the number of events vs control ([2]; 100 mg/kg oral BID, early phase 0-10 minutes): no statistically significant difference | Reduction in the number of events vs vehicle ([2]; 100 mg/kg oral BID, late phase 10-40 minutes): statistically significant (p<0.05) reduction | Licks per min (Between 0-10 min) ([3]; 375 mM topical BID (paw submerged), early phase): 4.0 Licks per min | Licks per min (Between 10-40 min) ([3]; 375 mM topical BID (paw submerged), late phase): 1.1 Licks per min | Difference in the number of events vs control ([3]; 375 mM topical, early phase 0-10 minutes): no statistically significant difference | Reduction in the number of events vs vehicle ([3]; 375 mM topical, late phase 10-40 minutes): statistically significant (p<0.05) reduction | Paw licking events after topical application alone ([3]; topical application without injection of formalin): negligible number of paw licking events | Inhibition of pro-inflammatory cytokine release (IL-6, TNFα, IFNγ, MIP-2 and RANTES) [6]: effective in inhibiting pro-inflammatory cytokine release
